For data set [1], the system named is acute myelogenous leukemia cell strain MV4-11. Kind of data set: In-vitro tumor cell proliferation inhibition, MTT. In kind it is cell-based, human. The following applies: 72 hours.
In data set [2] the test system is breast carcinoma cell strain BT474. Kind of data set: In-vitro tumor cell proliferation inhibition, MTT. In kind it is cell-based, human. The following applies: 72 hours. The method, boiled down: (§1)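 A431, HCC827, SW620 and BT474 cells (HCC827 seeded at 6×10^4 cells/ml) treated overnight-after-plating with graded compound concentrations for 72 h at 37° C; MTT read at 570 nm. Inhibition calculated versus untreated control, triplicate wells, ≥3 repeats; reported as IC50 or inhibitory rate.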

In data set [3] the test system is breast carcinoma cell strain MDA-MB-468. Nature of the data set: In-vitro tumor cell proliferation inhibition, MTT. The following applies: 72 hours. The class given is cell-based, human.
The subject of data set [4] is chronic granulocytic leukemia cell strain K562. Kind of data set: In-vitro tumor cell proliferation inhibition, MTT. To be noted: 72 hours. The class given is cell-based, human.
Data set [5] deals with colon cancer cell strain HCT116. Nature of the data set: In-vitro tumor cell proliferation inhibition, MTT. In kind it is cell-based, human. To be noted: 72 hours.
The test system of data set [6] is colon cancer cell strain SW480. Nature of the data set: In-vitro tumor cell proliferation inhibition, MTT. The class given is cell-based, human. To be noted: 72 hours.
For data set [7], the system named is colon cancer cell strain SW620. Kind of data set: In-vitro tumor cell proliferation inhibition, MTT. In kind it is cell-based, human. The following applies: 72 hours. The procedure, abridged:
as §1

The subject of data set [8] is gastric cancer cell strain MK-45. Nature of the data set: In-vitro tumor cell proliferation inhibition, MTT. In kind it is cell-based, human. The following applies: 72 hours, read-out: MK45 (IC50).
Data set [9] concerns liver cancer cell strain Hep G2. Nature of the data set: In-vitro tumor cell proliferation inhibition, MTT. The class given is cell-based, human. The following applies: 72 hours, read-out: HEPG2 (IC50).
The subject of data set [10] is malignant melanoma cell strain A375. Kind of data set: In-vitro tumor cell proliferation inhibition, MTT. In kind it is cell-based, human. The following applies: 72 hours.
The test system of data set [11] is squamous cell carcinoma cell strain A431. Nature of the data set: In-vitro tumor cell proliferation inhibition, MTT. The following applies: 72 hours. In kind it is cell-based, human. The method, boiled down: as §1
In data set [12] the test system is human acute myelogenous leukemia cell strain MV4-11. Nature of the data set: In-vivo anti-tumor test, NOD-SCID mouse subcutaneously transplanted human leukemic solid tumor model. The following applies: NOD-SCID mice, intragastric. The text has this:
The object of this assay was to determine the in-vivo anti-tumor effect of the present compound. In this assay, a NOD-SCID mouse subcutaneously transplanted human leukemic solid tumor model was used to test the present compound 8-29 for the in-vivo anti-tumor activity. The used cell strain was human acute myelogenous leukemia cell strain MV4-11.
NOD-SCID mice, aged 6-8 weeks, were inoculated with MV4-11 cell subcutaneously at the posterior segment of rib in a concentration of about 1×10^7 cells/0.1 ml per mouse. Upon the growth of the tumor up to 400-500 mm^3 (about 20 days), mice were grouped (n=6) and administrated intragastrically.
(§2) Observation Indices: the mice were measured every three days for the weight, and the length and width of tumor, and the tumor volume was calculated as length×width^2×0.52. […] 3. Results

In data set [13] the test system is human non-small cell lung carcinoma cell strain HCC827. Kind of data set: In-vivo anti-tumor test, nude mouse subcutaneously transplanted non-small cell lung carcinoma model. To be noted: nude mice, intragastric.
Description: The object of this assay was to determine the in-vivo anti-tumor effect of the present compound. In this assay, a nude mouse subcutaneously transplanted non-small cell lung carcinoma model was used to test the present compound 8-10 for the in-vivo anti-tumor activity. The used cell strain was human non-small cell lung carcinoma cell strain HCC827.
BALB/C nude mice, aged 6-8 weeks, were inoculated with HCC827 cell subcutaneously at the posterior segment of rib in a concentration of about 5×10^6 cells/0.1 ml per mouse. Upon the growth of the tumor up to 200-300 mm^3 (about 20 days), mice were grouped (n=6) and administrated intragastrically.
as §2

Some results are limits rather than exact numbers.

The term IC50 denotes the concentration needed to halve the response being measured.

Turning to `CC(C)n1c(Nc2cccnc2)nc2cnc(Nc3ccc(N4CCN(C)CC4)cc3)nc21` [Compounds 8-29], the half-inhibitory concentration (IC50) in data set [1] was 4 nM; in data set [2], 2260 nM; in data set [3] it was 8120 nM; in [4], 240 nM; in data set [5], 2480 nM; in data set [6] it was more than 10000 nM. Further, the IC50 in data set [7] is 5800 nM; in data set [8], 8170 nM; in [9] it was more than 10000 nM; in [10] it was 1880 nM; in data set [11], 9020 nM. Further, in data set [12] (MV4-11 xenograft, 5 mg/kg q.d. or higher (5, 10, 20 mg/kg q.d.)), the “in-vivo tumor growth inhibition” value is listed as “substantial in-vivo growth inhibition”. For the same molecule, in data set [12] (5-20 mg/kg q.d.), the “toxicity (untoward reactions: weight reduction, exanthema, diarrhea)” value is given as “low toxicity”.

Take `CC(C)n1c(Nc2ccccc2)nc2cnc(Nc3ccc(N4CCN(C)CC4)cc3)nc21` [Compounds 8-10]: the half-inhibitory concentration (IC50) in data set [1] is 102 nM; in data set [2], 226 nM; in [3], 700 nM; in data set [4], 106 nM; in data set [5] it was 1090 nM; in data set [6], more than 10000 nM. Moreover, the concentration for half-maximal inhibition (IC50) in [7] is 6060 nM; in data set [8], more than 1000 nM; in data set [9], 4800 nM; in data set [10], 1490 nM; in data set [11], 1580 nM. Moreover, the “in-vivo tumor growth inhibition” value in [13] (HCC827 xenograft, 2 mg/kg q.d. or higher (2, 5, 10, 20 mg/kg q.d.)) is “substantial in-vivo growth inhibition”. Moreover, in data set [13] (2-20 mg/kg q.d.), the “toxicity (untoward reactions: weight reduction, exanthema, diarrhea)” value is given as “low toxicity”.

`CC(C)n1c(Nc2ccc(C(F)(F)F)cc2)nc2cnc(Nc3ccc(N4CCN(C)CC4)cc3)nc21` [Compounds 8-27]: the IC50 was 88 nM in [1]; 1180 nM in data set [2]; 1960 nM in [3]; 777 nM in [4]; more than 1000 nM in data set [5]; 2600 nM in data set [6]. The IC50 in [7] is more than 1000 nM; in [8], 6110 nM; in data set [9], more than 1000 nM; in [10], 9790 nM; in data set [11], 2350 nM.

As for `COc1cccc(Nc2nc3cnc(Nc4ccc(N5CCN(C)CC5)cc4)nc3n2C(C)C)c1` [Compounds 8-17], the half-maximal inhibitory concentration (IC50) in data set [1] was 684 nM; in data set [2], 635 nM; in [3] it was 783 nM; in data set [4] it was 3 nM; in data set [5] it was 813 nM; in data set [6] it was more than 10000 nM. Besides, the IC50 in [7] is more than 1000 nM; in data set [8] it was 664 nM; in data set [9] it was more than 10000 nM; in data set [10], 190 nM; in [11], 8460 nM.

As to `COc1ccc(Nc2nc3cnc(Nc4ccc(N5CCN(C)CC5)cc4)nc3n2C(C)C)cc1` [Compounds 8-18], the IC50 in data set [1] was 183 nM; in [2] it was 2120 nM; in data set [3], 3170 nM; in data set [4], 1220 nM; in data set [5] it was 6290 nM; in data set [6] it was more than 10000 nM. Besides, the half-inhibitory concentration (IC50) was 4000 nM in data set [7]; 1520 nM in data set [8]; more than 10000 nM in [9]; 6460 nM in data set [10]; 6350 nM in [11].

Source of the values: US9096601B2 (CSPC Zhongqi Pharmaceutical Technology (Shijiazhuang) Co., …, priority 2010, dated 2015).
